From US8846644B2, “Phosphate-containing nanoparticle delivery vehicle” (priority 2009, dated 2014)

Test: Hydrophilicity test (dispersion)
Type: physicochemical

Question: With `CC(=O)O[C@H]1C(=O)[C@@]2(C)[C@H]([C@H](OC(=O)c3ccccc3)[C@]3(O)C[C@H](OC(=O)[C@H](O)[C@@H](NC(=O)c4ccccc4)c4ccccc4)C(C)=C1C3(C)C)[C@]1(OC(C)=O)CO[C@@H]1C[C@@H]2O` [paclitaxel] as the compound, how does the “dispersion (hydrophilicity)” value read?
Answer: The value was 0.4 µg/mL.
